Data: ChEMBL document CHEMBL1201862, “PubChem BioAssay data set” (2004)
Each block holds one molecule with its values, some of them ahead of it. The source made the active and inactive calls.

Columns and labels:
[1] = target: T1, RNA-binding protein pos-1 (Caenorhabditis elegans, UniProt G5EF15); test: disruptors of C. elegans POS-1 RNA interaction – biochemical, fluorescence polarization, dose response (AID 1964);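 note: purified POS-1 fused to maltose binding protein made in E. coli; potency of compounds blocking POS-1 binding to fluorescent RNA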
T1 sequence (G5EF15 whole entry): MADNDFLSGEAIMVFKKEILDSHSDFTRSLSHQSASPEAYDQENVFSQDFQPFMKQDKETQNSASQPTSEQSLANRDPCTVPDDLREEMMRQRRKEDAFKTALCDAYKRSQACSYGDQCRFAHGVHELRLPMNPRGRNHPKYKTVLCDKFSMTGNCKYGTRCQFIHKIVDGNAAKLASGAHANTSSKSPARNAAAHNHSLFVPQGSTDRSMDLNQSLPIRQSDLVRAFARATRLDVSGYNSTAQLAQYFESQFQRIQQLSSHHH

[2] = target: T2, Zinc finger protein mex-5 (Caenorhabditis elegans, UniProt Q9XUB2); test: potency of MEX-5 RNA-binding blockers – biochemical, C. elegans, fluorescence polarization, dose response (AID 1960)
T2 sequence (Q9XUB2 whole entry): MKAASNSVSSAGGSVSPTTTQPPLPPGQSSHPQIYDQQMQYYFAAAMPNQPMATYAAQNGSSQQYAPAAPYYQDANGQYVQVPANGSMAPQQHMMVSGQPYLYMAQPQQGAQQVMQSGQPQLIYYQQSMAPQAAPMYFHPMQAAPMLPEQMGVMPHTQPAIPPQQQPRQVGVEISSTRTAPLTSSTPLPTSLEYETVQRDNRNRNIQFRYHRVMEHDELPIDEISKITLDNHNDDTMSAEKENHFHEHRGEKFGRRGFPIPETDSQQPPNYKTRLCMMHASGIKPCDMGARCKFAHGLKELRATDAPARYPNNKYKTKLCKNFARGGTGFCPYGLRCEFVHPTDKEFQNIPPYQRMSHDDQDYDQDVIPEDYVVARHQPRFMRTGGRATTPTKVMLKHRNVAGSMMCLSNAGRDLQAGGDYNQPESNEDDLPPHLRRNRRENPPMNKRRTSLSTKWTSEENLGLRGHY

[3] = target: Peroxisome proliferator-activated receptor gamma (Homo sapiens, UniProt P37231); test: PPARg transcriptional activation, reporter cells – cell-based, luminescence, assay provider, dose response (AID 504447); type: functional
[4] = target: T3, Corticotropin-releasing factor receptor 2/Corticotropin-releasing factor-binding protein (Homo sapiens, UniProt P24387+Q13324); test: activators of CRF receptor 2 with binding protein – uHTS hits, confirmation (AID 602473); type: functional; details: read-out: EC50_Mean
T3 sequence (Q13324 whole entry): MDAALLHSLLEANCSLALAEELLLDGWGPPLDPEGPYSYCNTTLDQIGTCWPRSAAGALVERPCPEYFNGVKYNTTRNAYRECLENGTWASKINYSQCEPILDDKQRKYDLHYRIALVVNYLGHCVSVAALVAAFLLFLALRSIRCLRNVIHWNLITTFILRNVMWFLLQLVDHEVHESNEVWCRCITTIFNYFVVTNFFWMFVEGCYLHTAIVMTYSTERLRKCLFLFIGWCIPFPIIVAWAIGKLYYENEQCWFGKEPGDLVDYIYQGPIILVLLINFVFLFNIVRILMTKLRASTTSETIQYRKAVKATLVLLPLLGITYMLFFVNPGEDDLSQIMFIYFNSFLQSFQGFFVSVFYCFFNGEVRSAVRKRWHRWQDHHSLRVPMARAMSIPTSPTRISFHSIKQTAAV
T3 sequence (P24387 whole entry): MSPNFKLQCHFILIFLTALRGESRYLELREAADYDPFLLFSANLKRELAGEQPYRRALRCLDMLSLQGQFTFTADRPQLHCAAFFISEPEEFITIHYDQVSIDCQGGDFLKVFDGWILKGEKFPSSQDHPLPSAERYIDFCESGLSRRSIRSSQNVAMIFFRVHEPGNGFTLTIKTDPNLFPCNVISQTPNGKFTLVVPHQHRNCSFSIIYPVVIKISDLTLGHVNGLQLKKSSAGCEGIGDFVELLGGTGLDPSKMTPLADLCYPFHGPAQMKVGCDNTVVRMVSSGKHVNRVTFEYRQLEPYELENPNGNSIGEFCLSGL

[5] = target: Alkaline phosphatase, placental type (Homo sapiens, UniProt P05187); test: human placental alkaline phosphatase inhibition – biochemical, luminescence, confirmation (AID 1512); type: functional
[6] = target: T4, Tyrosine-protein phosphatase non-receptor type 7 (Homo sapiens, UniProt P35236); test: SAR analysis of chemical inhibitors of HePTP using a Fluorescent assay - Set 2. [Related pubchem assays (depositor defined):AID1059, AID1077, AID1661, AID2085, AID521]; type: functional
T4 sequence (P35236 whole entry): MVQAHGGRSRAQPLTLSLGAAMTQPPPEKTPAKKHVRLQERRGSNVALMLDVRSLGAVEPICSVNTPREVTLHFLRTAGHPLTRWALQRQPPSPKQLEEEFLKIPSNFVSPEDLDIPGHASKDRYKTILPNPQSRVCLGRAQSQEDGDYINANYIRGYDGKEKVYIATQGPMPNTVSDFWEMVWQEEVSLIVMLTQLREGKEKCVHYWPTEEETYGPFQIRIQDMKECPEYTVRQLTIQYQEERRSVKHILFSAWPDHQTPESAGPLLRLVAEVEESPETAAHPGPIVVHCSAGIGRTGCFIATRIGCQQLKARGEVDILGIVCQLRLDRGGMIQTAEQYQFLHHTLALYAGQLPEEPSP

[7] = target: Dual specificity protein phosphatase 3 (Homo sapiens, UniProt P51452); test: SAR VHR1 Fluorescent Assay for In Vitro dose response studies Set 2. [Related pubchem assays (depositor defined):AID1654, AID1661, AID1878]; type: functional
[8] = target: T5, G-protein coupled receptor 55 (Homo sapiens, UniProt Q9Y2T6); test: selective activators of receptor GPR55 – imaging, U2OS cells, beta-arrestin-GFP redistribution, primary screen (AID 1961); type: functional
[9] = target: T5, G-protein coupled receptor 55; test: inhibition of LPI-stimulated GPR55 beta-arrestin translocation – imaging, U2OS, beta-arrestin-GFP, LPI agonist, primary screen (AID 2013); type: functional;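 note: antagonist potency measured as reduced agonist-driven arrestin aggregation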
[10] = target: Voltage-dependent T-type calcium channel subunit alpha-1H (Homo sapiens, UniProt O95180); type: functional;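 note: channel activity triggered by adding a high calcium stimulation buffer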
SUMO-activating enzyme = SUMO-activating enzyme (Homo sapiens, UniProt Q9UBT2); test: blockers of UBC9-mediated SUMO conjugation – biochemical, AlphaScreen, SUMOylation inhibitor project, confirmation (AID 2018); type: functional
Troponin, cardiac muscle = Troponin, cardiac muscle (Homo sapiens, UniProt P19429+P45379+P63316); test: Fluorescence-based biochemical high throughput dose response assay for activators of the calcium sensitivity of cardiac Regulated Thin Filaments (RTF). [Related pubchem assays (depositor defined):AID493008, AID493018, AID504382, AID504383]; type: protein-complex assay

T5 sequence (Q9Y2T6 whole entry): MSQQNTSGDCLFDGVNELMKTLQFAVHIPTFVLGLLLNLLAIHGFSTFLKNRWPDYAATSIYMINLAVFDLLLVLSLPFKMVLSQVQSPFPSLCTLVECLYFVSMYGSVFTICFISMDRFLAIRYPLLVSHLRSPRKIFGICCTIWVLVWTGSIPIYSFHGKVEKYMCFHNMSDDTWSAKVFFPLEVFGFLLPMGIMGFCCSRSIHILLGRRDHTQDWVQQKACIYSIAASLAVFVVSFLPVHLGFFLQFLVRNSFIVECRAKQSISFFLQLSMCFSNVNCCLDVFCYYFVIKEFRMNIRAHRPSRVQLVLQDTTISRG
Dual specificity protein phosphatase 3, sequence (P51452 whole entry): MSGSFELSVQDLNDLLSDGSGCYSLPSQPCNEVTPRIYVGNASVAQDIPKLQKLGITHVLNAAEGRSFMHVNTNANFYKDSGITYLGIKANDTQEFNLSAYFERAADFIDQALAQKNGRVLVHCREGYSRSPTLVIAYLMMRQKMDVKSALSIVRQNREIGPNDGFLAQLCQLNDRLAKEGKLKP
SUMO-activating enzyme, sequence (Q9UBE0 whole entry): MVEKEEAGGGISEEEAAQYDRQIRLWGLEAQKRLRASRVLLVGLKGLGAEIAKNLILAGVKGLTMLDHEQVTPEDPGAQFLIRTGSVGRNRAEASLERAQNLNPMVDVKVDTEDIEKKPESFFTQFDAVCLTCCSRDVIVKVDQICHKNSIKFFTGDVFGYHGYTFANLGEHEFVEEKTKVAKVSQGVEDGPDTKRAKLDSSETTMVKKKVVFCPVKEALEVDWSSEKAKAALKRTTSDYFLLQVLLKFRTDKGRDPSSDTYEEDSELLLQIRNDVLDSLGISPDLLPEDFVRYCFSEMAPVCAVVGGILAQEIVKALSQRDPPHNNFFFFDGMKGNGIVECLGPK
SUMO-activating enzyme, sequence (Q9UBT2 whole entry): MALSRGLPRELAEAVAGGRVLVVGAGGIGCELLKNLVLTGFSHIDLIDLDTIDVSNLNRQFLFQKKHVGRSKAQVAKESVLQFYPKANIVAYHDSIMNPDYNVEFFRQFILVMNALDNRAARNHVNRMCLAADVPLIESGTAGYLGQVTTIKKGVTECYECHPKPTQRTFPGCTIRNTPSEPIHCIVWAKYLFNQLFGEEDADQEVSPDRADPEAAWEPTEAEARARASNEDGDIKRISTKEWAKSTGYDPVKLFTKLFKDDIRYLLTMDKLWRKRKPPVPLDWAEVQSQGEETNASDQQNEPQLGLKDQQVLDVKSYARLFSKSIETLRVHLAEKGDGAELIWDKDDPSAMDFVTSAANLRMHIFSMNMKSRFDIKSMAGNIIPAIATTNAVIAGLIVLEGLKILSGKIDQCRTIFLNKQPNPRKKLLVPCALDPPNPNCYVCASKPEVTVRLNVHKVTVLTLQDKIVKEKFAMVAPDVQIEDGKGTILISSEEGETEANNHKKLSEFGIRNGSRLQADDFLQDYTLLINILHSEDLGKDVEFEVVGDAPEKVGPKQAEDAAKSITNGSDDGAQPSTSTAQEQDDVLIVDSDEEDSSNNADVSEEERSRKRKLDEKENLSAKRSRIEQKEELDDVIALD
Alkaline phosphatase, placental type, sequence (P05187 whole entry): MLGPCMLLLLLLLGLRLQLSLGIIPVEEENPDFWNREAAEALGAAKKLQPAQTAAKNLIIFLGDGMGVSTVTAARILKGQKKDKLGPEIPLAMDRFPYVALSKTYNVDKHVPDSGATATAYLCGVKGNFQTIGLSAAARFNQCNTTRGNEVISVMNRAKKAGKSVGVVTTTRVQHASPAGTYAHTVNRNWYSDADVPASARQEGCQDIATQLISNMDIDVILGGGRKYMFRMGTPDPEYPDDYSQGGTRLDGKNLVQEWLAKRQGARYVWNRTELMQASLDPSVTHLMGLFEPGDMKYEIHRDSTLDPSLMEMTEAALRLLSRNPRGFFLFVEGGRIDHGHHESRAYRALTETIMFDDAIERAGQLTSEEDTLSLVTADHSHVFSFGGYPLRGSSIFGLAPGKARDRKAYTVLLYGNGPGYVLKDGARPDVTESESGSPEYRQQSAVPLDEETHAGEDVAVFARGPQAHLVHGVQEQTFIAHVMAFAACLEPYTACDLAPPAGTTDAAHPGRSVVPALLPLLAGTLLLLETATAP
Peroxisome proliferator-activated receptor gamma, sequence (P37231 whole entry): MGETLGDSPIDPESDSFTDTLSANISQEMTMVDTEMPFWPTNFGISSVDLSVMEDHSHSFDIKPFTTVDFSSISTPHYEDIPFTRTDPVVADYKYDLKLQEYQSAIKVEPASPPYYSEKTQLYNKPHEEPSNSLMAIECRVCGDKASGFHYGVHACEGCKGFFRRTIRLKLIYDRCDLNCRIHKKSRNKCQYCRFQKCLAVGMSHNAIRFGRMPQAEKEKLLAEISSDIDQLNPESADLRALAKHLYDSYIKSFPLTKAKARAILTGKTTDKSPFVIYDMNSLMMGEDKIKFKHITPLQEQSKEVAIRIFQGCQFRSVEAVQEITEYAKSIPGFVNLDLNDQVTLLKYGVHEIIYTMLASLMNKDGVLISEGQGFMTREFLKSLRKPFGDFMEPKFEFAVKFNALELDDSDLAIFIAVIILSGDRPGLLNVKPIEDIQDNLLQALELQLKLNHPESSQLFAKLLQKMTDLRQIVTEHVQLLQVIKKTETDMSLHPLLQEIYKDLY
Voltage-dependent T-type calcium channel subunit alpha-1H, sequence (O95180 whole entry): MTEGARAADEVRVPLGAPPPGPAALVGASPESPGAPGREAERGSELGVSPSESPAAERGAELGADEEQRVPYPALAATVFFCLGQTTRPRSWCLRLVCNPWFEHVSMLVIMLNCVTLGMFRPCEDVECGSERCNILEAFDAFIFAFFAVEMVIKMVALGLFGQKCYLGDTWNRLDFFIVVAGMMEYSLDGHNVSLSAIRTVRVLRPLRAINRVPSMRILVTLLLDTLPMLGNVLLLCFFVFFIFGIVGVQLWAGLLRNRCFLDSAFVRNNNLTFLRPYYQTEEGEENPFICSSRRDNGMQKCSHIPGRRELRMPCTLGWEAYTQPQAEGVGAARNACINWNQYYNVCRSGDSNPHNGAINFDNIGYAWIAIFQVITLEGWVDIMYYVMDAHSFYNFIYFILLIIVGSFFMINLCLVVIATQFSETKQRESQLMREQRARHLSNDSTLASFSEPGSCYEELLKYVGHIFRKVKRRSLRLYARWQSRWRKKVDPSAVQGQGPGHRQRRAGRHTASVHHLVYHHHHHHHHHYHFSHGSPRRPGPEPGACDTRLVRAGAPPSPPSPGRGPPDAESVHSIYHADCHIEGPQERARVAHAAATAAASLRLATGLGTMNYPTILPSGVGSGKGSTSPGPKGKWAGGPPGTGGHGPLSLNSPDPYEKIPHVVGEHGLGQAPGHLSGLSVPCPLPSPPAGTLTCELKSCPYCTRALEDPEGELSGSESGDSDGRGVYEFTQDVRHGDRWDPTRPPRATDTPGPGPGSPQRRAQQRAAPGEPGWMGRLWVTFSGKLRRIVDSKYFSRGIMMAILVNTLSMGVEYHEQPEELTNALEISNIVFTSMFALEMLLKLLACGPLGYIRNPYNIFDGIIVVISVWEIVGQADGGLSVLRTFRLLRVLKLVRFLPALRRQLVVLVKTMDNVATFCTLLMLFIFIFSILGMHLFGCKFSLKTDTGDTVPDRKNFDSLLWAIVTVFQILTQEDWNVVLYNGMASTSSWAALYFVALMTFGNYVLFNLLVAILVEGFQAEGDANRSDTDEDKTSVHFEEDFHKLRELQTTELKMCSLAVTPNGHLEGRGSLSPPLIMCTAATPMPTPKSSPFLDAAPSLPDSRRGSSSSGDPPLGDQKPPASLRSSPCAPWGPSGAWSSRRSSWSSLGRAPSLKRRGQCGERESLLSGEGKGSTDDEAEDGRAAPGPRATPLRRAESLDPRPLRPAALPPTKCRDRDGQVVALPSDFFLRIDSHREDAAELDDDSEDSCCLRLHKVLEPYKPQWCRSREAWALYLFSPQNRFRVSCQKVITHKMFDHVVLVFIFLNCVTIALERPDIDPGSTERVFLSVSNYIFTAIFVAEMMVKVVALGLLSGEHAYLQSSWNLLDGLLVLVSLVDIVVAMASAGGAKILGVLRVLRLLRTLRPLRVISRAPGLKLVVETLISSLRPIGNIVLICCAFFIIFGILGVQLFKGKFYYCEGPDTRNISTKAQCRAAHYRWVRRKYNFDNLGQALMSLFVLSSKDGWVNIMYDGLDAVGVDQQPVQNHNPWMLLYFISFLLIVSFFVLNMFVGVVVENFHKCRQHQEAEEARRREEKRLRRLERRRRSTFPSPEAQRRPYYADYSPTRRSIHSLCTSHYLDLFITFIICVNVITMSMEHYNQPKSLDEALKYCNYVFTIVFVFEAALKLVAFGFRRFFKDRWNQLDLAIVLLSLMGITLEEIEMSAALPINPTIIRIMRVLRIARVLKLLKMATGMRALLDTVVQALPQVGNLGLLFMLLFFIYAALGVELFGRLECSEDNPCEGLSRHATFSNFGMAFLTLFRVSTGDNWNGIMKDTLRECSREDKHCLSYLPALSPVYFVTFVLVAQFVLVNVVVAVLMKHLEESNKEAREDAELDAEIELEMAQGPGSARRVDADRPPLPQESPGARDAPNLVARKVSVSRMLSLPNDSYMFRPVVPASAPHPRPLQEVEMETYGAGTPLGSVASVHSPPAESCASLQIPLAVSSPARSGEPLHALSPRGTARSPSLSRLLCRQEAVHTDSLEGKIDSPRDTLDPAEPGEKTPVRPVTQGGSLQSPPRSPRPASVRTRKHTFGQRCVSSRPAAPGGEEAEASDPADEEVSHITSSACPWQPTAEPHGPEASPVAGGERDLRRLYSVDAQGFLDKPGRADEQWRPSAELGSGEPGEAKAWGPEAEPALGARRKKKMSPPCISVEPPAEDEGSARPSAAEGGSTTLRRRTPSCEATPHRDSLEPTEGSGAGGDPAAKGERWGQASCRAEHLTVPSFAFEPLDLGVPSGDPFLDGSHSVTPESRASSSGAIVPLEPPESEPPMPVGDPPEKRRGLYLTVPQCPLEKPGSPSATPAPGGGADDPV

- EC50 [1]: 13.7 µM (inconclusive)
- EC50 [2]: 14.3 µM (active)
- EC50 [3]: 1.7 µM (active)
- EC50 [4]: 5.27 µM (active)
Structure (SMILES): COc1ccccc1N1C(=O)C2C(C(=O)c3ccccc3)=NN(c3ccc(C)cc3)C2C1=O (configuration not stated)

- IC50 (SUMO-activating enzyme): 46 µM (active)
Structure (SMILES): Cn1c2ccccc2c2cnn(CC(=O)Nc3ccc(Cl)cc3)c(=O)c21

- EC50 (Troponin, cardiac muscle): > 71.4 µM (inactive)
Structure (SMILES): O=C(O)CCC(=O)Nc1cc(C(F)(F)F)cc(C(F)(F)F)c1

More lines, now with the values behind:

Structure (SMILES): Cc1ccc(NC(S)=NNC(=O)c2cn(C)nc2C)cc1
- IC50 [5]: > 100 µM (inactive)
- IC50 [6]: > 100 µM (inactive)
- IC50 [7]: > 100 µM (inactive)

Structure (SMILES): COc1cc2c(cc1NC(=O)CSc1ccc(Cl)cc1)oc1ccccc12
- EC50 [8]: 20.7 µM (inactive)

Structure (SMILES): CCN(c1ccccc1)S(=O)(=O)c1ccc(NCC2COc3ccccc3O2)nc1 (configuration not stated)
- IC50 [9]: 6.56 µM (active)
- EC50 [10]: 7.97 µM (active)
